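Test compounds were applied to cells in 96-well plates for 48 hours at 5 doses. GI50 marks 50% less growth. At the TGI there is no net growth.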
Assays:
Assay in all cases: inhibition of tumour cell growth, NCI panel, 48 h
786-0 renal = system: 786-0 renal
A498 renal = system: A498 renal
A549 NSCLC = system: A549 NSCLC
ACHN renal = system: ACHN renal
BT-549 breast = system: BT-549 breast
CAKI-1 renal = system: CAKI-1 renal
CCRF-CEM leukemia = system: CCRF-CEM leukemia
COLO 205 colon = system: COLO 205 colon
DU-145 prostate = system: DU-145 prostate
EKVX NSCLC = system: EKVX NSCLC
HCC-2998 colon = system: HCC-2998 colon
HCT-15 colon = system: HCT-15 colon
HL-60(TB) leukemia = system: HL-60(TB) leukemia
HOP-62 NSCLC = system: HOP-62 NSCLC
HOP-92 NSCLC = system: HOP-92 NSCLC
HS 578T breast = system: HS 578T breast
HT29 colon = system: HT29 colon
IGROV1 ovarian = system: IGROV1 ovarian
K-562 leukemia = system: K-562 leukemia
KM12 colon = system: KM12 colon
LOX IMVI melanoma = system: LOX IMVI melanoma
M14 melanoma = system: M14 melanoma
MALME-3M melanoma = system: MALME-3M melanoma
MCF7 breast = system: MCF7 breast
MDA-MB-231 breast = system: MDA-MB-231 breast
MDA-MB-435 = system: MDA-MB-435
MOLT-4 leukemia = system: MOLT-4 leukemia
NCI-H226 lung = system: NCI-H226 lung

## Cc1[nH]nc2ncc(C#Cc3cncc(C(=O)Nc4ccc(CN5CCN(C)CC5)c(C(F)(F)F)c4)c3)cc12
786-0 renal
  GI50: 0.173 µM
  TGI: 1.79 µM
A498 renal
  GI50: 0.218 µM
  TGI: 1.24 µM
A549 NSCLC
  GI50: 0.453 µM
  TGI: > 100 µM
ACHN renal
  GI50: 0.126 µM
BT-549 breast
  GI50: 0.301 µM
  TGI: 7.25 µM
CAKI-1 renal
  GI50: 0.0647 µM
  TGI: 0.994 µM
CCRF-CEM leukemia
  GI50: 0.293 µM
  TGI: > 27.5 µM
COLO 205 colon
  GI50: 0.287 µM
  TGI: 1.91 µM
DU-145 prostate
  GI50: 0.152 µM
EKVX NSCLC
  GI50: 0.294 µM
HCC-2998 colon
  GI50: 0.488 µM
HCT-15 colon
  GI50: 0.288 µM
  TGI: 4.04 µM
HL-60(TB) leukemia
  GI50: 0.28 µM
  TGI: 16.9 µM
HOP-62 NSCLC
  GI50: 0.366 µM
  TGI: 8.82 µM
HOP-92 NSCLC
  GI50: 0.123 µM
  TGI: 0.808 µM
HS 578T breast
  GI50: 0.0872 µM
  TGI: 0.929 µM
HT29 colon
  GI50: 0.174 µM
  TGI: 8.57 µM
IGROV1 ovarian
  GI50: 0.0582 µM
  TGI: 1.73 µM
K-562 leukemia
  TGI: 2.03 µM
KM12 colon
  GI50: < 0.0116 µM
LOX IMVI melanoma
  GI50: 0.155 µM
  TGI: 0.993 µM
M14 melanoma
  GI50: 0.0444 µM
  TGI: 2.07 µM
MALME-3M melanoma
  GI50: 0.0654 µM
  TGI: 0.304 µM
MCF7 breast
  GI50: 0.772 µM
  TGI: > 100 µM
MDA-MB-231 breast
  GI50: 0.0789 µM
  TGI: 0.737 µM
MDA-MB-435
  GI50: 0.242 µM
  TGI: 21.1 µM
MOLT-4 leukemia
  GI50: 0.155 µM
NCI-H226 lung
  GI50: 0.124 µM

From PubChem BioAssay (NCI)
